# Test results as given in PMC8989868, “Structural mechanism of TRPM7 channel regulation by intracellular magnesium” (Cellular and Molecular Life Sciences: CMLS, 2022).
# Target: T1, mouse TRPM7 (Mus musculus, UniProt Q923J1)
# T1 construct: full-length channel-kinase, untagged, in bicistronic pIRES2-EGFP, transiently expressed in HEK293T cells; homotetramer
# Assay: whole-cell patch clamp, current at +[…] mV
# Format: cell-based
# Conditions: external NS8593, inhibitor; Mg2+-free intracellular solution; pH 7.2
# T1 sequence (Q923J1 whole entry): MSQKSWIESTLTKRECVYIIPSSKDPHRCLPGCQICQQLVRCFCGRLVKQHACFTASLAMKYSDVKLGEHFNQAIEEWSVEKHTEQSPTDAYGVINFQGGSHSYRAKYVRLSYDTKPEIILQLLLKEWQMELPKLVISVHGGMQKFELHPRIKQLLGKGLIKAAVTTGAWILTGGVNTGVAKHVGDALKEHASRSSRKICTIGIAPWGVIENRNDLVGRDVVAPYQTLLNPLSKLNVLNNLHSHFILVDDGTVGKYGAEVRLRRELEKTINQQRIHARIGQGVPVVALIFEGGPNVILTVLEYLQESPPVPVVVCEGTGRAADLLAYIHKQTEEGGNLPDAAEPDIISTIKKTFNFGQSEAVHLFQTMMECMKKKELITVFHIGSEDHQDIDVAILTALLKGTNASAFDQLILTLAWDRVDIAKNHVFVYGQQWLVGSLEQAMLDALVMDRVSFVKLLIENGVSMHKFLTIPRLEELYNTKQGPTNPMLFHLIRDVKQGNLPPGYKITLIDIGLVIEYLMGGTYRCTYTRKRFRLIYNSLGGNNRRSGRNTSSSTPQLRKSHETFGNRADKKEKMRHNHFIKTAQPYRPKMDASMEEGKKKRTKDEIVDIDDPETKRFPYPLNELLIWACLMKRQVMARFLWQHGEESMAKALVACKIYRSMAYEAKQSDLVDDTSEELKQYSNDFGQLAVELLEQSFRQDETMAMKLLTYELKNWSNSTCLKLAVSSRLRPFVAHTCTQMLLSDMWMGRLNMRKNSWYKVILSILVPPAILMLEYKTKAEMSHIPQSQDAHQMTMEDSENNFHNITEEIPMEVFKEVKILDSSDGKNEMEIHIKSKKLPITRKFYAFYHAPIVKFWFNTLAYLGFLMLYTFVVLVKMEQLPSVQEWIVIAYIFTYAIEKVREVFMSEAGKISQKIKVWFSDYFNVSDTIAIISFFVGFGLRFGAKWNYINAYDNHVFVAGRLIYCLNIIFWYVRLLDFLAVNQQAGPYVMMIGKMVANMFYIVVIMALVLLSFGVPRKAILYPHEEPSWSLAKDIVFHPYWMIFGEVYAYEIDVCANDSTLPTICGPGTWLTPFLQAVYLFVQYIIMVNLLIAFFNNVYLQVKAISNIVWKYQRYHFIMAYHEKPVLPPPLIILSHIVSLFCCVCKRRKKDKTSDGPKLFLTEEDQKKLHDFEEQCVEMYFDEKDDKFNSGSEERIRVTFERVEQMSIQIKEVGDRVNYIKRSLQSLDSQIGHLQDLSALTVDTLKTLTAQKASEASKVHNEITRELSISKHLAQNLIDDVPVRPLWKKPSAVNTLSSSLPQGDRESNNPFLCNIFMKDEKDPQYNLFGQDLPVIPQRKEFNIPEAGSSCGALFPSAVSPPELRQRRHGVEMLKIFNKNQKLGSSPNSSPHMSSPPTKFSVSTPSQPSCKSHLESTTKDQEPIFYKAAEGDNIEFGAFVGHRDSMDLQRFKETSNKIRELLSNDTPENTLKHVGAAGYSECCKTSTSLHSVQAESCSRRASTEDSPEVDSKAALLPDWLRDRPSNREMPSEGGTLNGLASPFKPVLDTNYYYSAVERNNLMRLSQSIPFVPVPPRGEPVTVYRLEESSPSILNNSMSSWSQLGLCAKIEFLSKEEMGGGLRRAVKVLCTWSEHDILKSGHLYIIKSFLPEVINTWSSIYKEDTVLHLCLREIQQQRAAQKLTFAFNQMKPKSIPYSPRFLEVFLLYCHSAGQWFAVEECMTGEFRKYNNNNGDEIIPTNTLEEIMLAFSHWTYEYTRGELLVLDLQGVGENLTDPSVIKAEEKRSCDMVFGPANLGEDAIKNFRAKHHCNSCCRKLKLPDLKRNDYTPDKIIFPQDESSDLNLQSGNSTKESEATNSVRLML
compound,measurement,value
c1ccc2c(c1)CCC[C@H]2Nc1nc2ccccc2[nH]1 [NS8593],current inhibition at 10 μM,NS8593 caused a rapid inhibition of WT and N1097Q currents
